The assay deals with Human Thrombin (Homo sapiens, UniProt P00734). Nature of the assay: Inhibition of amidase activity of thrombin (Kass). The format is biochemical. To be noted: apparent association constant, mean over a range of concentrations.

Consider `C[C@H]1C[C@@H](C(=O)N[C@H](C=O)CCCNC(=N)N)N(C(=O)[C@H]2CCCCN2)C1.Cl.Cl` (relative stereo) [Example 1, D-homoprolyl-L-cis-4-methyl-prolyl-L-argininal dihydrochloride], for which the “Enzyme Kass, Human Thrombin” value is 220 L/mol × 10^6.
In the case of `CC[C@H]1C[C@@H](C(=O)N[C@H](C=O)CCCNC(=N)N)N(C(=O)[C@H]2CCCCN2)C1.Cl.Cl` (relative stereo) [Example 2, D-homoprolyl-L-cis-4-ethyl-prolyl-L-argininal dihydrochloride], the “Enzyme Kass, Human Thrombin” value is listed as 230 L/mol × 10^6.
Take `CCC[C@H]1C[C@@H](C(=O)N[C@H](C=O)CCCNC(=N)N)N(C(=O)[C@H]2CCCCN2)C1.Cl.Cl` (relative stereo) [Example 3, D-hPro-Pro(4-cis-n-propyl)-ArgH.2 HCl]: the “Enzyme Kass, Human Thrombin” value is 27 L/mol × 10^6.
Same read-out and setting: then `Cl.Cl.N=C(N)NCCC[C@@H](C=O)NC(=O)[C@@H]1C[C@H](Cc2ccccc2)CN1C(=O)[C@H]1CCCCN1` (relative stereo) [Example 5, D-hPro-Pro(4-cis-benzyl)-ArgH.2 HCl], with 110 L/mol × 10^6; and `Cl.Cl.N=C(N)NCCC[C@@H](C=O)NC(=O)[C@@H]1CC2CCCCC2N1C(=O)[C@H]1CCCCN1` (relative stereo) [Example 7, N-[(1-D-homoprolyl-cis-octahydro-1H-indol-2(S)-yl)carbonyl]-L-argininal dihydrochloride], with 340 L/mol × 10^6.
Take `Cl.Cl.N=C(N)NCCC[C@H](C=O)NC(=O)[C@@H]1C[C@H](Oc2ccccc2)CN1C(=O)[C@H]1CCCCN1` (relative stereo) [Example 8, D-homoprolyl-L-cis-4-phenoxy-L-prolyl-D-argininal dihydrochloride]: the “Enzyme Kass, Human Thrombin” value came to 50 L/mol × 10^6.
On to `Cl.Cl.Cl.N=C(N)NCCC[C@@H](C=O)NC(=O)[C@@H]1C[C@H](Oc2cccnc2)CN1C(=O)[C@H]1CCCCN1` (relative stereo) [Example 9, D-hPro-Pro(4-cis-(3-pyridyloxy))-ArgH.3 HCl], for which the “Enzyme Kass, Human Thrombin” value stood at 37 L/mol × 10^6.
As to `Cl.Cl.Cl.N=C(N)NCCC[C@@H](C=O)NC(=O)[C@@H]1C[C@H](Oc2ccc(N)cc2)CN1C(=O)[C@H]1CCCCN1` (relative stereo) [Example 11, D-hPro-Pro(4-cis-(4-NH2-phenoxy))-ArgH.3 HCl], the “Enzyme Kass, Human Thrombin” value came out at 28 L/mol × 10^6.
On the same count and under the same terms, for `Cl.Cl.N=C(N)NCCC[C@@H](C=O)NC(=O)[C@@H]1C[C@H](Oc2ccccc2)CN1C(=O)C1NCCC2CCCCC21` (relative stereo) [Example 15, D-1-Piq-Pro(4-cis-phenoxy)-ArgH.2 HCl] the value was 230 L/mol × 10^6; for `CCS(=O)(=O)N[C@@H](C(=O)N1[C@H](C(=O)N[C@H](C=O)CCCNC(=N)N)C[C@@H]2CCCC[C@@H]21)c1ccccc1.Cl` (relative stereo) [Example 22, EtSO2 -D-Phg-cis-Ohi-ArgH.HCl], 6,170 L/mol × 10^6.
As for `Cl.Cl.N=C(N)NCCCC(C=O)NC(=O)C1CC2CCCCC2N1C(=O)C1NCCC2CCCCC21` [Example 20, D-1-cis-Piq-cis-Ohi-ArgH.2 HCl], the “Enzyme Kass, Human Thrombin” value (HCl) is 1,630 L/mol × 10^6.

For the origin of these results see US5599793A, “Antithromobotic agents” (Eli Lilly and Company, priority 1995, dated 1997).
